Here are results for 26 molecules from patent US10703735B2, “4-phenyl-coumarin derivatives, processes for their preparation and uses thereof for the treatment of cancer” (Lead Discovery Center GmbH, priority 2018, dated 2020).

Structures are written as SMILES. A value given as a limit tells only on which side of the number the result lay.

In one assay the target is mitochondrial RNA-polymerase (POLRMT) (Mus musculus, UniProt Q8BKF1). As to the kind of experiment: Homogeneous TR-FRET assay for mitochondrial transcription activity. The class given is biochemical. As to conditions: homogeneous TR-FRET assay according to Example 4; read-out: mitochondrial transcription activity (IC-50). An excerpt: The TR-FRET assay was basically conducted as described in WO 2016/193231A1, especially as described in example 1 (hereby incorporated by reference). With respect to the background of the mitochondrial transcription it is referred to Falkenberg et al. (2002) and Posse et al. (Posse et al. 2015). The method monitors the activity of mitochondrial RNA-polymerase via detection of the formation of its product, a 407 bp long RNA sequence. Detection of the product is facilitated by hybridization of two DNA-oligonucleotide probes to specific and adjacent sequences within the RNA product sequence. Upon annealing of the probes, two fluorophores that are coupled directly to an acceptor nucleotide probe (ATT0647, 5′) or introduced via a coupled streptavidin interacting with a biotinylated donor nucleotide probe on the other side (Europium cryptate, 3) are brought into sufficient proximity to serve as a fluorescence-donor-acceptor pair as generally described in Walters and Namchuk (2003). Thus, a FRET signal at 665 nm is generated upon excitation at 340 nm.
mitochondrial RNA-polymerase (POLRMT), sequence (Q8BKF1 42-1207): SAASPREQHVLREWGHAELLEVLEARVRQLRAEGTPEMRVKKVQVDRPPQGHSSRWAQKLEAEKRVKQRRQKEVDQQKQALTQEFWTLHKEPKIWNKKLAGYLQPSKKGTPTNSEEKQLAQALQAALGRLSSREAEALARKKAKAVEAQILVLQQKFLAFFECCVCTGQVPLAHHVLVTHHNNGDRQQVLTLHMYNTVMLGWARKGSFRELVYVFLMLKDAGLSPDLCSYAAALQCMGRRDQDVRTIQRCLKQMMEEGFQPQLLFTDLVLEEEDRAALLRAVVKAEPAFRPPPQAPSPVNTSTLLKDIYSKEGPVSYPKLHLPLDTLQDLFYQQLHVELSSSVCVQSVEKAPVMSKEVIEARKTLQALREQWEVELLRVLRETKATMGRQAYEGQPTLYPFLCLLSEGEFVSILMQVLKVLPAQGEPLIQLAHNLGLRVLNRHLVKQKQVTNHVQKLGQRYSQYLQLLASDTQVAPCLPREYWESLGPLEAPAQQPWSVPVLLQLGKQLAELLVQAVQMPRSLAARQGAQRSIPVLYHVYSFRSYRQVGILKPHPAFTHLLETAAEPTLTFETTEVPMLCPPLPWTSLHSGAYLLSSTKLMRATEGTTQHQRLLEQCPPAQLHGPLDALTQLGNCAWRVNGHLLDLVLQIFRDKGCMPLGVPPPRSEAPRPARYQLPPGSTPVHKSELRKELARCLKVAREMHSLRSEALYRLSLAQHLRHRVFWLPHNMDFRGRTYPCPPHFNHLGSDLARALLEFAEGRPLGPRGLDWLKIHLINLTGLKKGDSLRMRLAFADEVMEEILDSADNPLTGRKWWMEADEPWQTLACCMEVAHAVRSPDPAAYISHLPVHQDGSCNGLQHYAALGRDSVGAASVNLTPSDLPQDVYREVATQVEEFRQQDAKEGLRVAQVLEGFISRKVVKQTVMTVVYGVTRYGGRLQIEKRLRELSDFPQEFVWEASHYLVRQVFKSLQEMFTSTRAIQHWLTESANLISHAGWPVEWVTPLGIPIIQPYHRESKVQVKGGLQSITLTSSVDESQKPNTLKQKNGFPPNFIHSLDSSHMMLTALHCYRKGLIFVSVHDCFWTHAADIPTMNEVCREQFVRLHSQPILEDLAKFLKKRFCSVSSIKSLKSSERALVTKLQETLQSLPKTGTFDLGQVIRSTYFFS
Briefly, the protocol described here was applied for screening and activity determination in a low-volume 384-well microtiter plate with non-binding surface. For high-throughput application in the 1536-well microtiter plate format, volumes of the reagent mixes were adjusted, maintaining the volumetric ratio. Proteins POLRMT (NM_172551.3), TFAM (NM_009360.4) and TFB2M (NM_008249.4) were diluted from their stocks to working concentrations of 150 nM, 1.8 μM and 330 nM respectively, in a dilution buffer containing 100 mM Tris-HCl pH 8.0, 200 mM NaCl, 10% (v/v) glycerole, 2 mM glutathione (GSH), 0.5 mM EDTA and 0.1 mg/mL BSA. Protein dilutions and template DNA, comprising a pUC18 plasmid encoding the mitochondrial light strand promoter, restriction linearized proximal to the promoter 3′-end (pUC-LSP), were mixed at the twofold final assay-concentration in a reaction buffer, containing 10 mM Tris-HCl pH 7.5, 10 mM MgCl2, 40 mM NaCl, 2 mM GSH, 0.01% (w/v) Tween-20 and 0.1 mg/mL BSA.
5 μL of this mix were dispensed, depending on the chosen microtiter plate format, using multi-channel pipettes or a Multidrop® dispenser (Thermo Fisher Scientific, Waltham Mass.) into the wells of a microtiter plate and incubated at room temperature (RT) for 10 min. Chemical compounds under scrutiny in the assay were applied using contact-free acoustic droplet-dispensing (Echo520® Labcyte Inc., Sunnyvale Calif.) from 10 mM compound stocks in 100% DMSO, to a final concentration of 10 μM or in serial dilution series of the required concentration range. Equal amounts of DMSO without any compound were added to positive control samples, followed by an incubation step at RT for 10 min.
The enzymatic reaction was started by the addition of 5 μL of a mix of dNTPs in reaction buffer to a final concentration of 500 μM each. No nucleotide mix was added to negative control samples. The content of the wells was mixed using a VarioTeleshaker™ (Thermo Fisher Scientific, Waltham Mass.) at 1500 rpm for 45 sec after which the microtiter plate was centrifuged at 500×g for 1 min. The samples were incubated for 2 h at RT with humidity control to avoid evaporation. The detection reagents were prepared in a buffer that was composed, such that the enzymatic reaction was terminated due to chelating of Mg-ions and increased ionic strength, containing 50 mM Tris-HCl pH 7.5, 700 mM NaCl, 20 mM EDTA, and 0.01% (w/v) Tween-20. Importantly Eu-cryptate-coupled streptavidin had to be preincubated with a 100-fold molar excess of a random sequence oligonucleotide for 10 min at RT in the dark to block unspecific binding of single stranded RNA to the protein. Subsequently, the blocked streptavidin(-Eu) was mixed with the DNA-probes on ice and kept away from light until use. […]
A general note: Time-resolved FRET reads energy transfer from a long-lived donor to a nearby acceptor.
`CC(Oc1ccc2c(-c3ccccc3)cc(=O)oc2c1)C(=O)OC(C)(C)C` (stereo not drawn) [Compound 1, tert-butyl 2-(2-oxo-4-phenyl-chromen-7-yl)oxypropanoate]: the IC50 was in the range of 100 to 1000 nM.

With `CC(Oc1ccc2c(-c3ccccc3)cc(=O)oc2c1)C(=O)N(C)C` (stereo not drawn) [Compound 2, N,N-dimethyl-2-(2-oxo-4-phenyl-chromen-7-yl)oxy-propanamide], the IC50 fell in the range of 100 to 1000 nM.

As for `CCOC(=O)C(C)Oc1ccc2c(-c3cccc(F)c3)cc(=O)oc2c1` (stereo not drawn) [Compound 7, ethyl 2-[4-(3-fluorophenyl)-2-oxo-chromen-7-yl]oxypropanoate], the IC50 lay in the range of 20 to 100 nM.

On to `CC(C)NC(=O)C(C)Oc1ccc2c(-c3ccccc3)cc(=O)oc2c1` (stereo not drawn) [Compound 12, N-isopropyl-2-(2-oxo-4-phenyl-chromen-7-yl)oxy-propanamide], for which the IC50 lay within 100 to 1000 nM.

For `O=C(COc1cc2oc(=O)cc(-c3ccccc3)c2cc1Cl)N1CCCc2ccccc21` [Compound 78, 6-chloro-7-[2-(3,4-dihydro-2H-quinolin-1-yl)-2-oxo-ethoxy]-4-phenyl-chromen-2-one], the IC50 was 1000 to 10000 nM.

On to `CC(Oc1cc2oc(=O)cc(-c3ccccc3)c2cc1Cl)C(=O)NCCN1CCOCC1` (stereo not drawn) [Compound 79, 2-(6-chloro-2-oxo-4-phenyl-chromen-7-yl)oxy-N-(2-morpholinoethyl)propanamide], for which the IC50 fell in the range of 1000 to 10000 nM.

As for `CC(Oc1cc(F)c2c(-c3ccccc3)cc(=O)oc2c1)C(=O)N(C)C` (stereo not drawn) [Compound 80, 2-(5-fluoro-2-oxo-4-phenyl-chromen-7-yl)oxy-N,N-dimethyl-propanamide], the IC50 lay within 1000 to 10000 nM.

`CCOC(=O)COc1ccc2c(-c3ccccc3)cc(=O)oc2c1` [Compound 81, ethyl 2-(2-oxo-4-phenyl-chromen-7-yl)oxyacetate]: the IC50 was 1000 to 10000 nM.

Take `CC(C)(C)OC(=O)COc1cc2oc(=O)cc(-c3ccccc3)c2cc1Cl` [Compound 82, tert-butyl 2-(6-chloro-2-oxo-4-phenyl-chromen-7-yl)oxyacetate]: the IC50 fell in the range of 1000 to 10000 nM.

For the molecule `O=C(COc1cc2oc(=O)cc(-c3ccccc3)c2cc1Cl)NCCN1CCOCC1` [Compound 83, 2-(6-chloro-2-oxo-4-phenyl-chromen-7-yl)oxy-N-(2-morpholinoethyl)acetamide], the IC50 was 1000 to 10000 nM.

As for `NC(=O)COc1cc2oc(=O)cc(-c3ccccc3)c2cc1Cl` [Compound 84, 2-(6-chloro-2-oxo-4-phenyl-chromen-7-yl)oxyacetamide], the IC50 fell in the range of 1000 to 10000 nM.

On to `O=C(O)C1CCCN(C(=O)COc2cc3oc(=O)cc(-c4ccccc4)c3cc2Cl)C1` (stereo not drawn) [Compound 85, 1-[2-(6-chloro-2-oxo-4-phenyl-chromen-7-yl)oxyacetyl]piperidine-3-carboxylic acid], for which the IC50 was 1000 to 10000 nM.

As to `O=C(COc1cc2oc(=O)cc(-c3ccccc3)c2cc1Cl)NC1CCCCCCC1` [Compound 86, 2-(6-chloro-2-oxo-4-phenyl-chromen-7-yl)oxy-N-cyclooctyl-acetamide], the IC50 lay in the range of 1000 to 10000 nM.

As to `CCOC(=O)C(C)Oc1cc(F)c2c(-c3ccccc3)cc(=O)oc2c1` (stereo not drawn) [Compound 87, ethyl 2-(5-fluoro-2-oxo-4-phenyl-chromen-7-yl)oxypropanoate], the IC50 lay within 1000 to 10000 nM.

With `O=C(O)COc1cc2oc(=O)cc(-c3ccccc3)c2cc1Cl` [Compound 88, 2-(6-chloro-2-oxo-4-phenyl-chromen-7-yl)oxyacetic acid], the IC50 was 1000 to 10000 nM.

On to `CC(Oc1cc2oc(=O)cc(-c3ccccc3)c2cc1Cl)C(=O)NC[C@H]1CC[C@H](C(=O)O)CC1` (stereo partly drawn) [Compound 89, 4-[[2-(6-chloro-2-oxo-4-phenyl-chromen-7-yl)oxypropanoylamino]methyl]cyclohexanecarboxylic acid], for which the IC50 is 1000 to 10000 nM.

As to `O=C(COc1cc2oc(=O)cc(-c3ccccc3)c2cc1Cl)NCC(O)c1ccccc1` (stereo not drawn) [Compound 90, 2-(6-chloro-2-oxo-4-phenyl-chromen-7-yl)oxy-N-(2-hydroxy-2-phenyl-ethyl)acetamide], the IC50 lay within 1000 to 10000 nM.

For `COC(=O)COc1ccc2c(-c3ccccc3)cc(=O)oc2c1C` [Compound 91, methyl 2-(8-methyl-2-oxo-4-phenyl-chromen-7-yl)oxyacetate], the IC50 was 1000 to 10000 nM.

As for `CCCOC(=O)COc1cc2oc(=O)cc(-c3ccccc3)c2cc1Cl` [Compound 92, propyl 2-(6-chloro-2-oxo-4-phenyl-chromen-7-yl)oxyacetate], the IC50 was in the range of 1000 to 10000 nM.

As to `CC(Oc1ccc2c(-c3ccccc3)cc(=O)oc2c1)C(=O)OCc1ccccc1` (stereo not drawn) [Compound 93, benzyl 2-(2-oxo-4-phenyl-chromen-7-yl)oxypropanoate], the IC50 lay in the range of 1000 to 10000 nM.

Consider `Cc1c(OCC(=O)OC(C)(C)C)ccc2c(-c3ccccc3)cc(=O)oc12` [Compound 94, tert-butyl 2-(8-methyl-2-oxo-4-phenyl-chromen-7-yl)oxyacetate], for which the IC50 was 1000 to 10000 nM.

Turning to `O=C(COc1cc2oc(=O)cc(-c3ccccc3)c2cc1Cl)NC1C=CS(=O)(=O)C1` (stereo not drawn) [Compound 95, 2-(6-chloro-2-oxo-4-phenyl-chromen-7-yl)oxy-N-(1,1-dioxo-2,3-dihydrothiophen-3-yl)acetamide], the IC50 fell in the range of 1000 to 10000 nM.

`CC(Oc1ccc2c(-c3ccccc3)cc(=O)oc2c1)C(=O)NC(C(=O)O)c1ccccc1` (stereo not drawn) [Compound 96, 2-[2-(2-oxo-4-phenyl-chromen-7-yl)oxypropanoylamino]-2-phenyl-acetic acid]: the IC50 is 1000 to 10000 nM.

As to `CCCc1cc2c(-c3ccccc3)cc(=O)oc2cc1OC(C)C(=O)O` (stereo not drawn) [Compound 97, 2-(2-oxo-4-phenyl-6-propyl-chromen-7-yl)oxypropanoic acid], the IC50 is 1000 to 10000 nM.

As for `O=C(COc1cc2oc(=O)cc(-c3ccccc3)c2cc1Cl)NC[C@H]1CC[C@H](C(=O)O)CC1` [Compound 98, 4-[[[2-(6-chloro-2-oxo-4-phenyl-chromen-7-yl)oxyacetyl]amino]methyl]cyclohexanecarboxylic acid], the IC50 lay within 1000 to 10000 nM.

Consider `O=C(COc1cc2oc(=O)cc(-c3ccccc3)c2cc1Cl)NCc1ccccn1` [Compound 99, 2-(6-chloro-2-oxo-4-phenyl-chromen-7-yl)oxy-N-(2-pyridylmethyl)acetamide], for which the IC50 lay in the range of 1000 to 10000 nM.

Another assay relates to mitochondrial transcription (7S RNA) in HeLa cells. As to the kind of experiment: Quantitative real time-PCR assay of inhibition of mitochondrial transcription (7S RNA) in HeLa cells. As to conditions: Homo sapiens, 4 h incubation, Example 5, read-out: cellular qPCR assay IMT (IC-50). In kind it is cell-based. As to the method:
Quantitative real-time PCR (qRT-PCR), based on the TaqMan™ (Thermo Fisher Scientific, Waltham Mass.) technology, was carried out essentially as described in (Heid et al. 1996). HeLa cells were plated one day before compound treatment in RPMI medium supplemented with 10% Fetal Calf Serum and 2 mM L-glutamine. Cells were incubated with dilution series of compounds or vehicle (DMSO) for 4 h, prior to harvest and extraction of the RNA using the RNeasy Mini Kit (Qiagen, Hilden D), according to the manufacturer's instructions. RNA concentrations were measured spectroscopically, using a NanoDrop-2000 (Thermo Fisher Scientific, Waltham Mass.) and normalized prior to cDNA synthesis, using a ‘High-Capacity cDNA Reverse Transcription Kit’ (Thermo Fisher Scientific, Waltham Mass.). qRT-PCR was carried out using the ‘TaqMan Fast Advance Master Mix’ (Thermo Fisher Scientific, Waltham Mass.) on a 7500 Fast Real-Time PCR machine (Applied Biosystems, Foster City Calif.)
For these measurements, three genes were used to compare the effect of the scrutinized compounds in relation to their concentration. The POLRMT-gene was used to detect potential influences on nuclear transcription. Mitochondrial transcription in vivo was monitored by measurements 7S RNA. The TBP (TATA-box binding protein) gene was employed as the control (housekeeping gene) during qRT-PCR. The short-lived mitochondrial 7S RNA, which is not post-transcriptionally stabilized, allowed us to monitor rapid changes in mitochondrial transcription activity following compound addition. Biological triplicates were analyzed using the comparative CT Method (ΔΔCt) method (Bubner et al. 2004) and reported as Rq % values (Rq=Relative quantification=2-ΔΔCt).
For the molecule `CC(Oc1ccc2c(-c3ccccc3)cc(=O)oc2c1)C(=O)OC(C)(C)C` (stereo not drawn) [Compound 1, tert-butyl 2-(2-oxo-4-phenyl-chromen-7-yl)oxypropanoate], the IC50 is under 10 nM.

Turning to `CC(Oc1ccc2c(-c3ccccc3)cc(=O)oc2c1)C(=O)N(C)C` (stereo not drawn) [Compound 2, N,N-dimethyl-2-(2-oxo-4-phenyl-chromen-7-yl)oxy-propanamide], the IC50 was in the range of 10 to 50 nM.

For the molecule `CCOC(=O)C(C)Oc1ccc2c(-c3cccc(F)c3)cc(=O)oc2c1` (stereo not drawn) [Compound 7, ethyl 2-[4-(3-fluorophenyl)-2-oxo-chromen-7-yl]oxypropanoate], the IC50 was in the range of 10 to 50 nM.

With `CC(C)NC(=O)C(C)Oc1ccc2c(-c3ccccc3)cc(=O)oc2c1` (stereo not drawn) [Compound 12, N-isopropyl-2-(2-oxo-4-phenyl-chromen-7-yl)oxy-propanamide], the IC50 lay within 50 to 500 nM.
